Experimental data as given in patent US9474790B2, “Stable, protracted GLP-1/glucagon receptor co-agonists for medical use” (Novo Nordisk A/S, priority 2013, dated 2016).
Numbered stars: 1 amine (or outer) side, 2 acyl side, 3 side chain; on linkers, the order of the positions; unused ones are H or OH. Square brackets hold non-standard residues; d marks the D form. Side chains are listed from the residue outwards. Peptide text beside a SMILES is read from it. * marks the point of attachment. C18 diacid = O=C(O)CCCCCCCCCCCCCCCCC(=O)*; γGlu = O=C(O)[C@H](CCC(=O)[*:2])N[*:1]; Ac4c = NC1(C(=O)O)CCC1; AEEA = NCCOCCOCC(=O)O

Biological target: T1, human glucagon receptor (Homo sapiens, UniProt P47871)
T1 construct: expressed in transfected cells; host or cells: BHK cells (parent BHK570, CRE luciferase clone BHK/KZ10-20-48), clone pLJ6'-4-25
Experiment: Glucagon receptor binding, 125I-glucagon displacement SPA on isolated membranes
Conditions: displacement of 125I-glucagon from membranes; read-out: IC50 GlucR
How it was run: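 Membranes from BHK cells stably expressing human glucagon receptor incubated 2 h at 25 °C with [125I]-glucagon (25 μl of 480 pM solution) and serial compound dilutions in WGA SPA format, pH 7.4 buffer with 0.1% ovalbumin. Albumin at max 0.001% or 0.2% final. IC50 from non-linear regression.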

T1 sequence (P47871 26-477): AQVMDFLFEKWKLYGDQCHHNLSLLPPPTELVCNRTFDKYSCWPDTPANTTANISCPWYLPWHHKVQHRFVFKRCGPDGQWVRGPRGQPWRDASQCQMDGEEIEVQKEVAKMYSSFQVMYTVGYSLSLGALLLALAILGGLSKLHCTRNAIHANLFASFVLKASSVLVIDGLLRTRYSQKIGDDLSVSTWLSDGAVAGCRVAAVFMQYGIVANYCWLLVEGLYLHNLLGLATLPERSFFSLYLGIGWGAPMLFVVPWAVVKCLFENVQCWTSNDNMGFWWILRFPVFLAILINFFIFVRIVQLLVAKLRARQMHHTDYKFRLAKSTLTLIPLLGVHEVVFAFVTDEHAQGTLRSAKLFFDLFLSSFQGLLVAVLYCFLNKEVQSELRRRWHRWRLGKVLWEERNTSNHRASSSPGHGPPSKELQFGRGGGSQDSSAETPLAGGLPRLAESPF

CC(C)C[C@H](NC(=O)[C@H](Cc1ccc(O)cc1)NC(=O)[C@H](CCCCN)NC(=O)[C@H](CO)NC(=O)[C@H](CC(C)C)NC(=O)[C@H](CC(=O)O)NC(=O)[C@H](CO)NC(=O)[C@@H](NC(=O)[C@H](Cc1ccccc1)NC(=O)[C@@H](NC(=O)CNC(=O)[C@H](CCC(N)=O)NC(=O)C1(NC(=O)[C@@H](N)Cc2c[nH]cn2)CCC1)[C@@H](C)O)[C@@H](C)O)C(=O)N[C@@H](CCC(=O)O)C(=O)N[C@@H](CO)C(=O)N[C@@H](CCCNC(=N)N)C(=O)N[C@@H](CCCNC(=N)N)C(=O)N[C@@H](C)C(=O)N[C@@H](CCCNC(=N)N)C(=O)N[C@@H](CCC(=O)O)C(=O)N[C@@H](Cc1ccccc1)C(=O)N[C@H](C(=O)N[C@@H](CCC(N)=O)C(=O)N[C@@H](Cc1c[nH]c2ccccc12)C(=O)N[C@@H](CC(C)C)C(=O)N[C@@H](CC(C)C)C(=O)N[C@@H](CCCCNC(=O)CC[C@H](NC(=O)CC[C@H](NC(=O)COCCOCCNC(=O)COCCOCCNC(=O)CC[C@H](NC(=O)CC[C@H](NC(=O)CCCCCCCCCCCCCCCCC(=O)O)C(=O)O)C(=O)O)C(=O)O)C(=O)O)C(=O)N[C@H](C(N)=O)[C@@H](C)O)C(C)C [Example 61, N^ε28-[(4S)-4-carboxy-4-[[(4S)-4-carboxy-4-[[2-[2-[2-[[2-[2-[2-[[(4S)-4-carboxy-4-[[(4S)-4-carboxy-4-(17-carboxyheptadecanoylamino)butanoyl]amino]butanoyl]amino]ethoxy]ethoxy]acetyl]amino]ethoxy]ethoxy]acetyl]amino]butanoyl]amino]butanoyl]-[Acb2,Leu10,Glu15,Arg20,Glu21,Leu27,Lys28]-Glucagon amide] (H-H[Ac4c]QGTFTSDLSKYLESRRAREFVQWLLK([γGlu-γGlu-AEEA-AEEA-γGlu-γGlu-C18 diacid])T-NH2; N-terminus assumed)
IC50: 1.8 nM
